Assay results reported in the supplement of paper PMC11562712.

Test: first-order primary biodegradation rate constant k (sorption-corrected, fDis-corrected) (d-1); higher = faster biodegradation
Outline: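 Each of 129 compounds was spiked at 1 μg L^–1 into river water containing sieved sediment (50 g wet solid L^–1) from German, Swiss, Spanish and Greek river segments, then shaken in darkness at 20.5 ± 3.5 °C, the river water temperature, for 10 days in three replicates. Filtered samples of the water phase were measured by ultra-high-performance liquid chromatography coupled to Orbitrap tandem mass spectrometry. First-order k values came from log peak-area regression, corrected for sorption-control dissipation under azide sterilisation and divided by dissolved fraction, and invalid fits were left out.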

[1] = river segment: Germany (DE) H_Contam, incubation temperature 24 °C
[2] = river segment: Germany (DE) T_Contam, incubation temperature 24 °C
[3] = river segment: Germany (DE) T_Pris, incubation temperature 24 °C
[4] = river segment: Greece (EL) A_Contam, incubation temperature 19 °C
[5] = river segment: Greece (EL) G_Contam, incubation temperature 19 °C
[6] = river segment: Greece (EL) G_Pris, incubation temperature 19 °C
[7] = river segment: Spain (ES) B_Contam, incubation temperature 24 °C
[8] = river segment: Spain (ES) L_Contam, incubation temperature 24 °C
[9] = river segment: Switzerland (CH) C_Contam, incubation temperature 17 °C
[10] = river segment: Switzerland (CH) U_Contam, incubation temperature 17 °C
[11] = river segment: Switzerland (CH) U_Pris, incubation temperature 17 °C
[12] = river segment: Spain (ES) C_Contam, incubation temperature 24 °C
[13] = river segment: Spain (ES) F_Pris_Salt, incubation temperature 24 °C
[14] = river segment: Switzerland (CH) R_Contam, incubation temperature 17 °C
[15] = river segment: Greece (EL) L_Contam, incubation temperature 19 °C

Question: For CCN1CCCC1CNC(=O)c1cc(S(=O)(=O)CC)c(N)cc1OC (stereo not given) [Amisulpride], which “first-order primary biodegradation rate constant k” value [1] is on record?
Answer: 0.0111

Question: And the “first-order primary biodegradation rate constant k” value [2]?
Answer: 0.266

Question: What about the “first-order primary biodegradation rate constant k” value [3] of the same compound?
Answer: 0.0301

Question: What about the “first-order primary biodegradation rate constant k” value [4] of the same compound?
Answer: 0.501

Question: What about the “first-order primary biodegradation rate constant k” value [5] of the same compound?
Answer: 0.129

Question: And the “first-order primary biodegradation rate constant k” value [6]?
Answer: 0.106

Question: And the “first-order primary biodegradation rate constant k” value [7]?
Answer: 0.0427

Question: What about the “first-order primary biodegradation rate constant k” value [8] of the same compound?
Answer: 0.00307

Question: What about the “first-order primary biodegradation rate constant k” value [9] of the same compound?
Answer: 0.0234

Question: What about the “first-order primary biodegradation rate constant k” value [10] of the same compound?
Answer: 0.00879

Question: What about the “first-order primary biodegradation rate constant k” value [11] of the same compound?
Answer: 0.0314

Question: Which “first-order primary biodegradation rate constant k” value [1] does the source give for NCC1(CC(=O)O)CCCCC1 [Gabapentin] here?
Answer: 0.0147

Question: What about the “first-order primary biodegradation rate constant k” value [2] of the same compound?
Answer: 0.183

Question: And the “first-order primary biodegradation rate constant k” value [4]?
Answer: 0.0518

Question: And the “first-order primary biodegradation rate constant k” value [6]?
Answer: 0.0145

Question: And the “first-order primary biodegradation rate constant k” value [7]?
Answer: 0.811

Question: What about the “first-order primary biodegradation rate constant k” value [12] of the same compound?
Answer: 0.119

Question: What about the “first-order primary biodegradation rate constant k” value [13] of the same compound?
Answer: 0.119

Question: What about the “first-order primary biodegradation rate constant k” value [8] of the same compound?
Answer: 0.235

Question: What about the “first-order primary biodegradation rate constant k” value [14] of the same compound?
Answer: 0.109

Question: And the “first-order primary biodegradation rate constant k” value [10]?
Answer: 0.0703

Question: And the “first-order primary biodegradation rate constant k” value [11]?
Answer: 0.15

Question: For Cc1cccc(Nc2ccccc2C(=O)O)c1C [Mefenamic acid], which “first-order primary biodegradation rate constant k” value [1] is on record?
Answer: 0.0696

Question: What about the “first-order primary biodegradation rate constant k” value [2] of the same compound?
Answer: 0.497

Question: What about the “first-order primary biodegradation rate constant k” value [3] of the same compound?
Answer: 0.23

Question: What about the “first-order primary biodegradation rate constant k” value [4] of the same compound?
Answer: 0.235

Question: What about the “first-order primary biodegradation rate constant k” value [12] of the same compound?
Answer: 0.0725

Question: And the “first-order primary biodegradation rate constant k” value [13]?
Answer: 0.804

Question: What about the “first-order primary biodegradation rate constant k” value [9] of the same compound?
Answer: 0.174

Question: And the “first-order primary biodegradation rate constant k” value [10]?
Answer: 1.41

Question: What about the “first-order primary biodegradation rate constant k” value [11] of the same compound?
Answer: 1.7

Question: Which “first-order primary biodegradation rate constant k” value [4] does the source give for COc1ccc(C(CN(C)C)C2(O)CCCCC2)cc1 (stereo not given) [Venlafaxine] here?
Answer: 1.22

Question: And the “first-order primary biodegradation rate constant k” value [5]?
Answer: 0.204

Question: And the “first-order primary biodegradation rate constant k” value [15]?
Answer: 1.2

Question: What about the “first-order primary biodegradation rate constant k” value [7] of the same compound?
Answer: 0.0466

Question: And the “first-order primary biodegradation rate constant k” value [8]?
Answer: 0.0394

Question: What about the “first-order primary biodegradation rate constant k” value [9] of the same compound?
Answer: 0.00206

Question: What about the “first-order primary biodegradation rate constant k” value [10] of the same compound?
Answer: 0.0953

Question: With CC1(C(=O)Nc2ccc(O)c(Cl)c2Cl)CCCCC1 [Fenhexamid] as the compound, how does the “first-order primary biodegradation rate constant k” value [1] read?
Answer: 0.151

Question: And the “first-order primary biodegradation rate constant k” value [2]?
Answer: 0.656

Question: What about the “first-order primary biodegradation rate constant k” value [3] of the same compound?
Answer: 0.165

Question: And the “first-order primary biodegradation rate constant k” value [4]?
Answer: 0.189

Question: What about the “first-order primary biodegradation rate constant k” value [6] of the same compound?
Answer: 0.641

Question: And the “first-order primary biodegradation rate constant k” value [15]?
Answer: 0.493

Question: What about the “first-order primary biodegradation rate constant k” value [12] of the same compound?
Answer: 0.109

Question: And the “first-order primary biodegradation rate constant k” value [13]?
Answer: 0.0571

Question: And the “first-order primary biodegradation rate constant k” value [8]?
Answer: 0.189

Question: And the “first-order primary biodegradation rate constant k” value [14]?
Answer: 0.0432

Question: And the “first-order primary biodegradation rate constant k” value [11]?
Answer: 0.988

Question: For CCCCCCCCCCCCN [Dodecylamine], which “first-order primary biodegradation rate constant k” value [5] is on record?
Answer: 7.74

Question: What does the source list for CC(=O)Nc1ccc(O)cc1 [Paracetamol]?
Answer: first-order primary biodegradation rate constant k [1]: 2.34; first-order primary biodegradation rate constant k [2]: 3.16; first-order primary biodegradation rate constant k [4]: 3.21; first-order primary biodegradation rate constant k [5]: 3.16; first-order primary biodegradation rate constant k [6]: 0.888; first-order primary biodegradation rate constant k [7]: 1.24; first-order primary biodegradation rate constant k [12]: 1.28; first-order primary biodegradation rate constant k [8]: 2.82; first-order primary biodegradation rate constant k [14]: 3.87; first-order primary biodegradation rate constant k [10]: 2.14

Question: With CNC(=C[N+](=O)[O-])NCCSCc1ccc(CN(C)C)o1 [Ranitidine] as the compound, how does the “first-order primary biodegradation rate constant k” value [1] read?
Answer: 0.498

Question: What about the “first-order primary biodegradation rate constant k” value [2] of the same compound?
Answer: 28.6

Question: And the “first-order primary biodegradation rate constant k” value [3]?
Answer: 17.5

Question: And the “first-order primary biodegradation rate constant k” value [4]?
Answer: 6.6

Question: What about the “first-order primary biodegradation rate constant k” value [5] of the same compound?
Answer: 1.42

Question: And the “first-order primary biodegradation rate constant k” value [6]?
Answer: 28.8

Question: And the “first-order primary biodegradation rate constant k” value [15]?
Answer: 3.75

Question: And the “first-order primary biodegradation rate constant k” value [7]?
Answer: 1.57

Question: What about the “first-order primary biodegradation rate constant k” value [12] of the same compound?
Answer: 0.0642

Question: What about the “first-order primary biodegradation rate constant k” value [13] of the same compound?
Answer: 0.103

Question: What about the “first-order primary biodegradation rate constant k” value [8] of the same compound?
Answer: 3.75

Question: What about the “first-order primary biodegradation rate constant k” value [9] of the same compound?
Answer: 0.639

Question: What about the “first-order primary biodegradation rate constant k” value [14] of the same compound?
Answer: 0.559

Question: What about the “first-order primary biodegradation rate constant k” value [10] of the same compound?
Answer: 0.756

Question: What about the “first-order primary biodegradation rate constant k” value [11] of the same compound?
Answer: 0.596
